This passage reports solubility results from US20230143604A1, “QW DOSING OF GIP RECEPTOR AGONIST PEPTIDE COMPOUNDS AND USES THEREOF” (TAKEDA PHARMACEUTICAL COMPANY LIMITED, priority 2020, published 2023).

The term solubility denotes the concentration that dissolves in the medium under given conditions.

This data set is described as follows: physchem. In outline: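 3 mg of peptide treated with 100 μL portions of 200 mM phosphate buffer pH 7.4, sonicating/vortexing up to 1 min, with further buffer added until fully dissolved. Solubility then quantified by HPLC.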

SMILES strings stand for the structures. Starred links: 1 amine or outer side, 2 acyl side, 3 side chain; linkers in the order of their positions; H or OH if unused. Non-standard residues stand in square brackets, D forms with d. Residues, ends and D or L forms follow the SMILES beside them. Groups on a side chain read outwards from the residue. *: point of attachment. C18 diacid = O=C(O)CCCCCCCCCCCCCCCCC(=O)*; C17 diacid = O=C(O)CCCCCCCCCCCCCCCC(=O)*; γGlu = O=C(O)[C@H](CCC(=O)[*:2])N[*:1]; AEEA = NCCOCCOCC(=O)O; Aib = CC(C)(N)C(=O)O

With `CC[C@H](C)[C@H](NC(=O)[C@H](CO)NC(=O)[C@H](Cc1ccc(O)cc1)NC(=O)[C@H](CC(=O)O)NC(=O)[C@H](CO)NC(=O)[C@@H](NC(=O)[C@H](Cc1ccccc1)NC(=O)[C@@H](NC(=O)CNC(=O)[C@H](CCC(=O)O)NC(=O)C(C)(C)NC(=O)[C@@H](N)Cc1ccc(O)cc1)[C@@H](C)O)[C@@H](C)CC)C(=O)N[C@@H](C)C(=O)N[C@@H](CC(C)C)C(=O)N[C@@H](CC(=O)O)C(=O)N[C@@H](CCCNC(=N)N)C(=O)NC(C)(C)C(=O)N[C@@H](C)C(=O)N[C@@H](CCC(N)=O)C(=O)NC(C)(C)C(=O)N[C@@H](CCCCNC(=O)COCCOCCNC(=O)COCCOCCNC(=O)CC[C@H](NC(=O)CC[C@H](NC(=O)CCCCCCCCCCCCCCCC(=O)O)C(=O)O)C(=O)O)C(=O)N[C@@H](Cc1ccccc1)C(=O)N[C@H](C(=O)N[C@@H](CC(N)=O)C(=O)N[C@@H](Cc1c[nH]c2ccccc12)C(=O)N[C@@H](CC(C)C)C(=O)N[C@@H](CC(C)C)C(=O)N[C@@H](C)C(=O)N[C@@H](CCC(N)=O)C(=O)N[C@@H](CCCNC(=N)N)C(=O)NCC(=O)O)C(C)C` [Compound 140] (H-Y[Aib]EGTFISDYSIALDR[Aib]AQ[Aib]K([AEEA-AEEA-γGlu-γGlu-C17 diacid])FVNWLLAQRG-OH), the solubility reads like this: (pH 7.4) no less than 15 mg/mL; (pH 7.4, aqueous buffer) no less than 30 mg/mL. For `CC[C@H](C)[C@H](NC(=O)[C@H](Cc1ccccc1)NC(=O)[C@@H](NC(=O)CNC(=O)[C@H](CCC(=O)O)NC(=O)C(C)(C)NC(=O)[C@@H](N)Cc1ccc(O)cc1)[C@@H](C)O)C(=O)N[C@@H](CO)C(=O)N[C@@H](CC(=O)O)C(=O)N[C@@H](Cc1ccc(O)cc1)C(=O)N[C@@H](CO)C(=O)N[C@H](C(=O)NC(C)(C)C(=O)N[C@@H](CC(C)C)C(=O)N[C@@H](CC(=O)O)C(=O)N[C@@H](CCCNC(=N)N)C(=O)NC(C)(C)C(=O)N[C@@H](C)C(=O)N[C@@H](CCC(N)=O)C(=O)NC(C)(C)C(=O)N[C@@H](CCCCNC(=O)COCCOCCNC(=O)COCCOCCNC(=O)CC[C@H](NC(=O)CC[C@H](NC(=O)CCCCCCCCCCCCCCCCC(=O)O)C(=O)O)C(=O)O)C(=O)N[C@@H](Cc1ccccc1)C(=O)N[C@H](C(=O)N[C@@H](CC(N)=O)C(=O)N[C@@H](Cc1c[nH]c2ccccc12)C(=O)N[C@@H](CC(C)C)C(=O)N[C@@H](CC(C)C)C(=O)N[C@@H](C)C(=O)N[C@@H](CCC(N)=O)C(=O)N[C@@H](CCCNC(=N)N)C(=O)NCC(=O)O)C(C)C)[C@@H](C)CC` [Compound 141] (H-Y[Aib]EGTFISDYSI[Aib]LDR[Aib]AQ[Aib]K([AEEA-AEEA-γGlu-γGlu-C18 diacid])FVNWLLAQRG-OH) the same measures were no less than 15 mg/mL and no less than 30 mg/mL.

Consider `CC[C@H](C)[C@H](NC(=O)[C@H](CCCCN)NC(=O)[C@H](CC(=O)O)NC(=O)[C@H](CC(C)C)NC(=O)[C@H](C)NC(=O)[C@@H](NC(=O)[C@H](CO)NC(=O)[C@H](Cc1ccc(O)cc1)NC(=O)[C@H](CC(=O)O)NC(=O)[C@H](CO)NC(=O)[C@@H](NC(=O)[C@H](Cc1ccccc1)NC(=O)[C@@H](NC(=O)CNC(=O)[C@H](CCC(=O)O)NC(=O)C(C)(C)NC(=O)[C@@H](N)Cc1ccc(O)cc1)[C@@H](C)O)[C@@H](C)CC)[C@@H](C)CC)C(=O)N[C@@H](C)C(=O)N[C@@H](CCC(N)=O)C(=O)N[C@@H](CCC(N)=O)C(=O)N[C@@H](CCCCNC(=O)COCCOCCNC(=O)COCCOCCNC(=O)CC[C@H](NC(=O)CC[C@H](NC(=O)CCCCCCCCCCCCCCCC(=O)O)C(=O)O)C(=O)O)C(=O)N[C@@H](Cc1ccccc1)C(=O)N[C@H](C(=O)N[C@@H](CCC(=O)O)C(=O)N[C@@H](Cc1c[nH]c2ccccc12)C(=O)N[C@@H](CC(C)C)C(=O)N[C@@H](CC(C)C)C(=O)N[C@@H](C)C(=O)N[C@@H](CCC(N)=O)C(=O)N[C@@H](CCCNC(=N)N)C(=O)NCC(=O)O)C(C)C` [Compound 142] (H-Y[Aib]EGTFISDYSIALDKIAQQK([AEEA-AEEA-γGlu-γGlu-C17 diacid])FVEWLLAQRG-OH), for which the solubility was no less than 15 mg/mL (pH 7.4) and no less than 30 mg/mL (pH 7.4, aqueous buffer). `CC[C@H](C)[C@H](NC(=O)[C@H](CCCCN)NC(=O)[C@H](CC(=O)O)NC(=O)[C@H](CC(C)C)NC(=O)[C@H](C)NC(=O)[C@@H](NC(=O)[C@H](CO)NC(=O)[C@H](Cc1ccc(O)cc1)NC(=O)[C@H](CC(=O)O)NC(=O)[C@H](CO)NC(=O)[C@@H](NC(=O)[C@H](Cc1ccccc1)NC(=O)[C@@H](NC(=O)CNC(=O)[C@H](CCC(=O)O)NC(=O)C(C)(C)NC(=O)[C@@H](N)Cc1ccc(O)cc1)[C@@H](C)O)[C@@H](C)CC)[C@@H](C)CC)C(=O)N[C@@H](C)C(=O)N[C@@H](CCC(N)=O)C(=O)N[C@@H](CCCNC(=N)N)C(=O)N[C@@H](CCCCNC(=O)COCCOCCNC(=O)COCCOCCNC(=O)CC[C@H](NC(=O)CC[C@H](NC(=O)CCCCCCCCCCCCCCCC(=O)O)C(=O)O)C(=O)O)C(=O)N[C@@H](Cc1ccccc1)C(=O)N[C@H](C(=O)N[C@@H](CCC(=O)O)C(=O)N[C@@H](Cc1c[nH]c2ccccc12)C(=O)N[C@@H](CC(C)C)C(=O)N[C@@H](CC(C)C)C(=O)N[C@@H](C)C(=O)N[C@@H](CCC(N)=O)C(=O)N[C@@H](CCCNC(=N)N)C(=O)NCC(=O)O)C(C)C` [Compound 143] (H-Y[Aib]EGTFISDYSIALDKIAQRK([AEEA-AEEA-γGlu-γGlu-C17 diacid])FVEWLLAQRG-OH) gave a solubility (pH 7.4) of no less than 15 mg/mL and a solubility (pH 7.4, aqueous buffer) of no less than 30 mg/mL.

In the case of `CC[C@H](C)[C@H](NC(=O)[C@H](Cc1ccccc1)NC(=O)[C@@H](NC(=O)CNC(=O)[C@H](CCC(=O)O)NC(=O)C(C)(C)NC(=O)[C@@H](N)Cc1ccc(O)cc1)[C@@H](C)O)C(=O)N[C@@H](CO)C(=O)N[C@@H](CC(=O)O)C(=O)N[C@@H](Cc1ccc(O)cc1)C(=O)N[C@@H](CO)C(=O)N[C@H](C(=O)NC(C)(C)C(=O)N[C@@H](CCCCNC(=O)CNC(=O)CNC(=O)CNC(=O)CNC(=O)CNC(=O)CCCCCCCCCCCCCCCCC(=O)O)C(=O)N[C@@H](CC(=O)O)C(=O)N[C@@H](CCCNC(=N)N)C(=O)NC(C)(C)C(=O)N[C@@H](C)C(=O)N[C@@H](CCC(N)=O)C(=O)N[C@@H](CCCNC(=N)N)C(=O)N[C@@H](CC(=O)O)C(=O)N[C@@H](Cc1ccccc1)C(=O)N[C@H](C(=O)N[C@@H](CCC(=O)O)C(=O)N[C@@H](Cc1c[nH]c2ccccc12)C(=O)N[C@@H](CC(C)C)C(=O)N[C@@H](CC(C)C)C(=O)N[C@@H](C)C(=O)N[C@@H](CCC(N)=O)C(=O)N[C@@H](CCCNC(=N)N)C(=O)NCC(=O)O)C(C)C)[C@@H](C)CC` [Compound 147], the solubility (pH 7.4) is no less than 15 mg/mL. With `CC[C@H](C)[C@H](NC(=O)[C@H](Cc1ccccc1)NC(=O)[C@@H](NC(=O)CNC(=O)[C@H](CCC(=O)O)NC(=O)C(C)(C)NC(=O)[C@@H](N)Cc1ccc(O)cc1)[C@@H](C)O)C(=O)N[C@@H](CO)C(=O)N[C@@H](CC(=O)O)C(=O)N[C@@H](Cc1ccc(O)cc1)C(=O)N[C@@H](CO)C(=O)N[C@H](C(=O)NC(C)(C)C(=O)N[C@@H](CCCCNC(=O)CNC(=O)CNC(=O)CNC(=O)CNC(=O)CNC(=O)CCCCCCCCCCCCCCCCC(=O)O)C(=O)N[C@@H](CC(=O)O)C(=O)N[C@@H](CO)C(=O)N[C@@H](C)C(=O)N[C@@H](C)C(=O)N[C@@H](CCC(N)=O)C(=O)NC(C)(C)C(=O)N[C@@H](CC(=O)O)C(=O)N[C@@H](Cc1ccccc1)C(=O)N[C@H](C(=O)N[C@@H](CC(N)=O)C(=O)N[C@@H](Cc1c[nH]c2ccccc12)C(=O)N[C@@H](CC(C)C)C(=O)N[C@@H](CC(C)C)C(=O)N[C@@H](C)C(=O)N[C@@H](CCC(N)=O)C(=O)N[C@@H](CCCNC(=N)N)C(=O)NCC(=O)O)C(C)C)[C@@H](C)CC` [Compound 151], the solubility was no less than 15 mg/mL (pH 7.4) and no less than 30 mg/mL (pH 7.4, aqueous buffer). On the same counts, the results for `CC[C@H](C)[C@H](NC(=O)[C@H](CCCCN)NC(=O)[C@H](CC(=O)O)NC(=O)[C@H](CC(C)C)NC(=O)[C@H](C)NC(=O)[C@@H](NC(=O)[C@H](CO)NC(=O)[C@H](Cc1ccc(O)cc1)NC(=O)[C@H](CC(=O)O)NC(=O)[C@H](CO)NC(=O)[C@@H](NC(=O)[C@H](Cc1ccccc1)NC(=O)[C@@H](NC(=O)CNC(=O)[C@H](CCC(=O)O)NC(=O)C(C)(C)NC(=O)[C@@H](N)Cc1ccc(O)cc1)[C@@H](C)O)[C@@H](C)CC)[C@@H](C)CC)C(=O)N[C@@H](C)C(=O)N[C@@H](CCC(N)=O)C(=O)NC(C)(C)C(=O)N[C@@H](CCCCNC(=O)COCCOCCNC(=O)COCCOCCNC(=O)CC[C@H](NC(=O)CC[C@H](NC(=O)CCCCCCCCCCCCCCCCC(=O)O)C(=O)O)C(=O)O)C(=O)N[C@@H](Cc1ccccc1)C(=O)N[C@H](C(=O)N[C@@H](CCC(=O)O)C(=O)N[C@@H](Cc1c[nH]c2ccccc12)C(=O)N[C@@H](CC(C)C)C(=O)N[C@@H](CC(C)C)C(=O)N[C@@H](C)C(=O)N[C@@H](CCC(N)=O)C(=O)N[C@@H](CCCNC(=N)N)C(=O)NCC(=O)O)C(C)C` [Compound 153] (H-Y[Aib]EGTFISDYSIALDKIAQ[Aib]K([AEEA-AEEA-γGlu-γGlu-C18 diacid])FVEWLLAQRG-OH) are no less than 15 mg/mL and no less than 30 mg/mL. For the compound `CC[C@H](C)[C@H](NC(=O)[C@H](CO)NC(=O)[C@H](Cc1ccc(O)cc1)NC(=O)[C@H](CC(=O)O)NC(=O)[C@H](CO)NC(=O)[C@@H](NC(=O)[C@H](Cc1ccccc1)NC(=O)[C@@H](NC(=O)CNC(=O)[C@H](CCC(=O)O)NC(=O)C(C)(C)NC(=O)[C@@H](N)Cc1ccc(O)cc1)[C@@H](C)O)[C@@H](C)CC)C(=O)N[C@@H](C)C(=O)N[C@@H](CC(C)C)C(=O)N[C@@H](CC(=O)O)C(=O)N[C@@H](CCCCN)C(=O)N[C@@H](C)C(=O)N[C@@H](C)C(=O)N[C@@H](CCC(N)=O)C(=O)NC(C)(C)C(=O)N[C@@H](CCCCNC(=O)COCCOCCNC(=O)COCCOCCNC(=O)CC[C@H](NC(=O)CC[C@H](NC(=O)CCCCCCCCCCCCCCCCC(=O)O)C(=O)O)C(=O)O)C(=O)N[C@@H](Cc1ccccc1)C(=O)N[C@H](C(=O)N[C@@H](CCC(=O)O)C(=O)N[C@@H](Cc1c[nH]c2ccccc12)C(=O)N[C@@H](CC(C)C)C(=O)N[C@@H](CC(C)C)C(=O)N[C@@H](C)C(=O)N[C@@H](CCC(N)=O)C(=O)N[C@@H](CCCNC(=N)N)C(=O)NCC(=O)O)C(C)C` [Compound 154] (H-Y[Aib]EGTFISDYSIALDKAAQ[Aib]K([AEEA-AEEA-γGlu-γGlu-C18 diacid])FVEWLLAQRG-OH), the solubility was no less than 15 mg/mL (pH 7.4) and no less than 30 mg/mL (pH 7.4, aqueous buffer).
